Assay results reported in US12173088B2, “Anti-microbial peptides” (priority 2018, dated 2024).
Converted amounts (≈) assume the structure as drawn. Read-outs that look alike come from different tables or passages of the source. Peptide text beside a SMILES is read from it.

Experiments:
S. aureus USA300 = assay: microbe, parasite or virus in culture; assay type: cell-based, Staphylococcus aureus
Text: The bacterial strains used include the Gram-positive strains Staphylococcus aureus USA300 LAC, S. epidermidis 1457, and Bacillus subtilis 168, as well as the Gram-negative isolates Escherichia coli K12 and Acinetobacter baumannii B2367-12. Additional, drug resistance strains include Gram-positive Enterococcus faecium V286-17 (VRE) and S. aureus M838-17 (MRSA) and Gram-negative E. coli E423-17, E. coli E416-17 (ampC), and P. aeruginosa E411-17. Bacteria were cultivated in tryptic soy broth (TSB) (BD Bioscience, MD).
(§1) The antibacterial activity of peptides was evaluated using a standard broth microdilution protocol with minor modifications as described (Mishra, et al. (2012) J. Am. Chem. Soc., 134:12426-12429). In brief, logarithmic phase bacterial cultures (i.e., optical density at 600 nm≈0.5) were diluted to OD600 0.001 and partitioned into a 96-well polystyrene microplate at 90 μL per well. After treatment with 10 μL of peptide solutions two fold diluted to various concentrations, microplates were incubated at 37° C. overnight and read on a ChroMate® 4300 Microplate Reader at 630 nm (GMI, Ramsey, MN). […] To study the influence of medium conditions on the antimicrobial activity of peptides against S. aureus USA300, up to 200 mM sodium chloride (NaCl), 2 mM of calcium chloride, 5-10% of human serum, mouse plasma, fluid, or supernatants of tissue homogenates were included into the assays.
(§2) The bacterial strains used include the Gram-positive bacteria methicillin-resistant Staphylococcus aureus USA300, Enterococcus faecium V286-17 (VRE), S. aureus M838-17 (MRSA) and Gram-negative bacteria E. coli E423-17, E416-7 (ampC), P. aeruginosa E411-17, PA01, K. pneumoniae E406-17, ATCC13883, and A. baumannii B26-16. Bacteria were cultivated in tryptic soy broth (TSB) from BD Bioscience.
(§3) The antibacterial activity of peptides was evaluated using a standard broth microdilution protocol with minor modifications (Mishra, et al. (2017) Acta Biomater., 49:316-328). In brief, logarithmic phase bacterial cultures (i.e., optical density at 600 nm≈0.5) were diluted to 0.001 OD and aliquoted 90 μL per well into a 96-well polystyrene microplate. Added 10 μL peptides per well with various concentrations, plates were incubated at 37° C., overnight. Post incubation the plates are read at 630 nm using a ChroMate® Microplate Reader (GMI). […] To study the influence of medium conditions on the antimicrobial activity of peptides against S. aureus USA300 at different pHs (6.8, 7.2, and 8.0), 150 mM sodium chloride (NaCl), 5-10% of human serum, mouse plasma, and peritoneal fluid were included into the assays.

P. aeruginosa PAO1 = assay type: cell-based, Pseudomonas aeruginosa
Method: as §1, §2, §3

E. coli ATCC 25922 = assay type: cell-based, Escherichia coli
Method: as §1, §3

K. pneumoniae ATCC 13883 = assay type: cell-based, Klebsiella pneumoniae
Method: as §1, §2, §3

[1] = tested on: human red blood cells (hRBCs); assay: Hemolytic assay; assay type: cell-based
Method: Briefly, human red blood cells (hRBCs) were washed three times with phosphate buffer saline (PBS) and diluted to a 2% solution (v/v). After peptide treatment, incubation at 37° C. for one hour, and centrifugation at 5000 rpm for 10 minutes, aliquots of the supernatant were carefully transferred to a fresh 96-well microplate. The amount of hemoglobin released was measured at 545 nm. The percent lysis was calculated by assuming 100% release when human blood cells were treated with 2% Triton™ X-100, and 0% release when incubated with PBS buffer. The peptide concentration that caused 50% lysis of hRBCs is defined as HL50. The cell selectivity index (CSI) was calculated as the ratio between HL50 and MIC of the corresponding peptide against a select pathogenic species.
Hemolytic assays of peptides were performed as described (Mishra, et al. (2017) Acta Biomater., 49:316-328). Briefly, human red blood cells (hRBCs) obtained from UNMC Blood Bank. The blood washed 3× with isotonic saline (0.9% NaCl) and diluted to 2% blood cells (v/v). Peptide horine and verine at various concentrations were added into the 2% blood cells and incubated at 37° C. for 1 hour. Post incubation the plates were spun at 2000 rpm for 10 minutes, aliquots of the supernatant were carefully transferred to a fresh 96-well microplate. The amount of cells lysed is proportional to the hemoglobin released and measured at 545 nm using a ChroMate® microplate reader. The percent lysis was calculated by assuming 100% release when human blood cells were treated with 1% Triton™ X-100, and 0% release when incubated with PBS. The peptide concentration that caused 50% lysis of hRBCs is defined as HL50.

Compound	MIC S. aureus USA 300 (S. aureus USA300; USA300) [µM]	MIC P. aeruginosa PAO1 (P. aeruginosa PAO1; PAO1) [µM]	MIC E. coli ATCC 25922 (E. coli ATCC 25922; ATCC 25922) [µM]	MIC K. pneumoniae (K. pneumoniae ATCC 13883; ATCC 13883) [µM]	MIC against S. aureus (S. aureus USA300; USA300) [µM]	MIC K. pneumonia ATCC 13883 (K. pneumoniae ATCC 13883; ATCC 13883) [µM]	Activity against Pseudomonas aeruginosa PAO1 (P. aeruginosa PAO1)	HL50 [1] [µM]	MIC S. aureus USA 300 (S. aureus USA300; Table 2, peptides amidated, quantified by UV) [µM]	MIC P. aeruginosa PAO1 (P. aeruginosa PAO1; Table 2, quantified by UV) [µM]	MIC E. coli ATCC 25922 (E. coli ATCC 25922; Table 2, quantified by UV) [µM]	MIC K. pneumoniae (K. pneumoniae ATCC 13883; Table 2, quantified by UV) [µM]	HL50 ([1]; Table 2, lysis of 50% hRBCs (2% v/v)) [µM]
CC(C)C[C@H](NC(=O)[C@H](CC(C)C)NC(=O)[C@H](CCCCN)NC(=O)CNC(=O)[C@H](C)NC(=O)[C@H](CC(C)C)NC(=O)[C@H](CO)NC(=O)[C@H](CC(C)C)NC(=O)[C@H](CC(C)C)NC(=O)[C@H](CO)NC(=O)[C@H](CC(C)C)NC(=O)[C@H](CC(C)C)NC(=O)CN)C(N)=O [DFT511, GLLSLLSLAGKLL] (H-GLLSLLSLAGKLL-NH2; N-terminus assumed)	0.78 (≈ 1.01 µg/mL)	12.5 (≈ 16.2 µg/mL)	3.1 (≈ 4.02 µg/mL)	3.1 (≈ 4.02 µg/mL)			active	14					
CC(C)C[C@H](NC(=O)CN)C(=O)N[C@@H](CC(C)C)C(=O)N[C@@H](CO)C(=O)N[C@@H](CC(C)C)C(=O)N[C@@H](CC(C)C)C(=O)N[C@@H](CO)C(=O)N[C@@H](CC(C)C)C(=O)N[C@@H](CC(C)C)C(=O)NCC(=O)N[C@@H](CCCCN)C(=O)N[C@@H](CC(C)C)C(=O)N[C@@H](C)C(N)=O [DFT513, GLLSLLSLLGKLA] (H-GLLSLLSLLGKLA-NH2; N-terminus assumed)									1.56 (≈ 2.02 µg/mL)	>25	1.5 to 3.1	12.5 to 25	<3.1
CC(C)C[C@H](NC(=O)[C@H](CC(C)C)NC(=O)[C@H](CCCCN)NC(=O)CNC(=O)[C@H](CC(C)C)NC(=O)[C@H](CC(C)C)NC(=O)[C@H](CO)NC(=O)[C@H](CC(C)C)NC(=O)[C@H](CC(C)C)NC(=O)[C@H](CO)NC(=O)[C@H](C)NC(=O)[C@H](CC(C)C)NC(=O)CN)C(N)=O [DFT507, GLASLLSLLGKLL] (H-GLASLLSLLGKLL-NH2; N-terminus assumed)	0.78 (≈ 1.01 µg/mL)	>25	>25	>25				<3.1					

The next lines start with results.

MIC S. aureus USA 300 (S. aureus USA300; USA300) [µM]	MIC P. aeruginosa PAO1 (P. aeruginosa PAO1; PAO1) [µM]	MIC E. coli ATCC 25922 (E. coli ATCC 25922; ATCC 25922) [µM]	MIC K. pneumoniae (K. pneumoniae ATCC 13883; ATCC 13883) [µM]	MIC against S. aureus (S. aureus USA300; USA300) [µM]	MIC K. pneumonia ATCC 13883 (K. pneumoniae ATCC 13883; ATCC 13883) [µM]	Compound	Activity against Pseudomonas aeruginosa PAO1 (P. aeruginosa PAO1)	HL50 [1] [µM]	MIC S. aureus USA 300 (S. aureus USA300; Table 2, peptides amidated, quantified by UV) [µM]	MIC P. aeruginosa PAO1 (P. aeruginosa PAO1; Table 2, quantified by UV) [µM]	MIC E. coli ATCC 25922 (E. coli ATCC 25922; Table 2, quantified by UV) [µM]	MIC K. pneumoniae (K. pneumoniae ATCC 13883; Table 2, quantified by UV) [µM]	HL50 ([1]; Table 2, lysis of 50% hRBCs (2% v/v)) [µM]
0.78 (≈ 1.01 µg/mL)	>25	3.1 (≈ 4.02 µg/mL)	3.1 (≈ 4.02 µg/mL)			CC(C)C[C@H](NC(=O)[C@H](C)NC(=O)[C@H](CCCCN)NC(=O)CNC(=O)[C@H](CC(C)C)NC(=O)[C@H](CC(C)C)NC(=O)[C@H](CO)NC(=O)[C@H](CC(C)C)NC(=O)[C@H](CC(C)C)NC(=O)[C@H](CO)NC(=O)[C@H](CC(C)C)NC(=O)[C@H](CC(C)C)NC(=O)CN)C(N)=O [DFT512, GLLSLLSLLGKAL] (H-GLLSLLSLLGKAL-NH2; N-terminus assumed)		4					
75 (≈ 94 µg/mL)	>25	25 (≈ 31.3 µg/mL)	>25	12.5 to 25		CC(C)C[C@H](NC(=O)[C@H](C)NC(=O)[C@H](CCCCN)NC(=O)CNC(=O)[C@H](CC(C)C)NC(=O)[C@H](C)NC(=O)[C@H](CCCCN)NC(=O)[C@H](CC(C)C)NC(=O)[C@H](C)NC(=O)[C@H](CO)NC(=O)[C@H](CC(C)C)NC(=O)[C@H](CC(C)C)NC(=O)CN)C(N)=O [DFT529, GLLSALKALGKAL] (H-GLLSALKALGKAL-NH2; N-terminus assumed)		>50					
>25	>25	>25			>25	CC(C)C[C@H](NC(=O)[C@H](CC(C)C)NC(=O)[C@H](CCCCN)NC(=O)CNC(=O)[C@H](CC(C)C)NC(=O)[C@H](CO)NC(=O)[C@H](CC(C)C)NC(=O)[C@H](CO)NC(=O)[C@H](CC(C)C)NC(=O)[C@H](CC(C)C)NC(=O)CN)C(N)=O [DFT524, GLLSL-SL-GKLL] (H-GLLSLSLGKLL-NH2; N-terminus and C-terminus assumed)		>300					
